Columns and labels:
[1] = molecular target: T1, ATP-dependent translocase ABCB1 (Homo sapiens, UniProt P08183); assay: TP_TRANSPORTER: intracellular accumulation in K562 and K562/DXR cells; assay type: functional, cell-based
[2] = molecular target: T1, ATP-dependent translocase ABCB1; assay: TP_TRANSPORTER: inhibition of Azidopine photoaffinity labelling (Azidopine: 0.1 uM, Mefloquine: 10 uM) in membranes from K562/DOX cells; assay type: functional, cell membranes, Membrane; details: k562/adr
[3] = molecular target: T1, ATP-dependent translocase ABCB1; assay: TP_TRANSPORTER: increase in Rhodamine 123 intracellular accumulation (R123: 10 uM, Mefloquine: 10 uM) in K562/DOX cells; assay type: functional, cell-based; details: k562/adr

T1 sequence (P08183 whole entry): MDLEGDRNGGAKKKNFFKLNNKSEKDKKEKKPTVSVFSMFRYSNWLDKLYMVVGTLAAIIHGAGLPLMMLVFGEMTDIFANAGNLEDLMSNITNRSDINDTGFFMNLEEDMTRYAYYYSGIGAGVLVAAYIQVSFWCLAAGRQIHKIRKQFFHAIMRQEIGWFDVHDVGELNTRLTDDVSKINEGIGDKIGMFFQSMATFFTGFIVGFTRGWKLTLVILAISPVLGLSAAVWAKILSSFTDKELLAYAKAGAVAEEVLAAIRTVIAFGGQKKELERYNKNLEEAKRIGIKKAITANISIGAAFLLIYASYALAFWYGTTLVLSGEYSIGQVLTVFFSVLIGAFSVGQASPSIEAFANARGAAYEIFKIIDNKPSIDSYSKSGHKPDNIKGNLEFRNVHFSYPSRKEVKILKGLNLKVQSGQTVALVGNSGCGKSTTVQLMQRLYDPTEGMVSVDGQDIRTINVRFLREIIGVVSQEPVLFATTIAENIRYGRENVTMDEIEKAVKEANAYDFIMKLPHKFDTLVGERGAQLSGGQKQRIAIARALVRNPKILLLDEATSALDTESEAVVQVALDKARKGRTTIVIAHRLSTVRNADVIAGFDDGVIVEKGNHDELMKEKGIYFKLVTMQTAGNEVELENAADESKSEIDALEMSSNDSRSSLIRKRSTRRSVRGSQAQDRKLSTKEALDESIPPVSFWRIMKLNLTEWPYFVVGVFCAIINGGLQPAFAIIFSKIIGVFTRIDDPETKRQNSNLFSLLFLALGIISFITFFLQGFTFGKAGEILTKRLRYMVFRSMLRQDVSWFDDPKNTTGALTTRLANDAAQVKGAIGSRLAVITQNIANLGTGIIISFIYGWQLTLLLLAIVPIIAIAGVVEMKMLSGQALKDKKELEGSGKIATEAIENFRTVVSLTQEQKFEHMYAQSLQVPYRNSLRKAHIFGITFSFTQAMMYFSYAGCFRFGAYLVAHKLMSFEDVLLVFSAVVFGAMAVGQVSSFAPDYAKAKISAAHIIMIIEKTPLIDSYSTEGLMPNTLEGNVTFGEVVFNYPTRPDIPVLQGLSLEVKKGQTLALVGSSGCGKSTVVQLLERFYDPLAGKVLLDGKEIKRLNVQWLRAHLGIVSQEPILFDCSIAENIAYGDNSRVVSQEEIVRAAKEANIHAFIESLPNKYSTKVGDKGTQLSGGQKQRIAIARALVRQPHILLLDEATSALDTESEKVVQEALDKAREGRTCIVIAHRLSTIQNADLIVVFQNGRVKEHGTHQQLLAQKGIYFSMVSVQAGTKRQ

| Activity [1] | Activity [2] | Activity [3] | Compound |
| --- | --- | --- | --- |
| substrate [+] | – | – | COC(=O)c1ccccc1-c1c2ccc(=N)cc-2oc2cc(N)ccc12.Cl [RHODAMINE123] |
| – | inhibitor [+] | inhibitor [+] | OC(c1cc(C(F)(F)F)nc2c(C(F)(F)F)cccc12)C1CCCCN1 (stereo not drawn) [MEFLOQUINE] |
